Entries after “also recorded” stand apart in the source; their conditions may differ.
Tests used:
[1] = system: S. mosellana females; experiment: Y-tube olfactometer bioassay; format: in vivo, Sitodiplosis mosellana; conditions: 10 μL of 20 μg/μL in paraffin oil vs paraffin oil control; 60 females
Protocol: Behavioral responses of S. mosellana females to the 28 volatile ligands were measured in a glass Y-tube olfactometer. The base and two arms of the Y-tube are 15 cm in length and 25 mm in internal diameter. The angle between arms is 60°. A 10 μL aliquot of the test chemical in paraffin oil at a concentration of 20 μg/μL [45] was applied to a filter paper strip (20 × 20 mm), which was allowed to evaporate for 20 s and then placed into one of the two odor bottles. The other odor bottle contained a filter paper strip treated with 10 μL of paraffin oil as the control. Moist, activated-charcoal filtered air entered both odor bottles connected by Teflon tubing to their respective arms of the Y-tube. The airflow rate through the olfactometer was 100 mL/min, which was measured by a float rotor meter. A newly emerged female S. mosellana adult was introduced into the end of the base of the Y-tube, which was then immediately covered with a dark paper box. An office lamp (20 W) illuminated the joint of two arms to facilitate observation. The choice was made if the S. mosellana female walked or flew 5 cm past the Y junction within 5 min and remained there for at least 15 s. Otherwise, it would be recorded as no-choice. Odor source was renewed for every five individuals. After testing for 10 individuals, the Y-tube was thoroughly cleaned with 95% ethanol and dried, and the treatment and control arms were switched to avoid the directional bias. After one odor source was tested, the Y-tube, odor bottles, and Teflon tubing were cleaned and dried before reuse. All experiments were conducted in a laboratory with a temperature of 25 ± 1 °C from 5:00 to 9:00 p.m. Sixty female adults were tested in each treatment group, and each individual was used only once. The choice response of insects in each treatment group was analyzed by the chi-square test using SPSS 20.0 software (Chicago, IL, USA). Non-selecting insects were recorded but not included in the statistical analysis.

[2] = system: SmosOBP16; set-up: method as in PMID 31017726; conditions: cited from earlier work
[3] = target: SmosOBP17 (Sitodiplosis mosellana, UniProt A0A346RTY9); experiment: Fluorescence competitive binding assay with 1-NPN probe, recombinant SmosOBP17
Protocol: (§1) To determine binding affinities of SmosOBP12 and SmosOBP17 to host plant volatile compounds, fluorescence competitive binding assays were conducted using 1-N-phenyl-naphthylamine (1-NPN) as the fluorescent probe. Twenty-eight volatile compounds from winter wheat (Table 2) were selected based on our previous research. Both the probe and candidate ligands were dissolved in chromatographic-grade methanol to obtain 1 mM stock solutions, whereas recombinant SmosOBPs were diluted in 20 mM Tris-HCl (pH 7.4) to 2 μM. Fluorescence intensity was detected on an F-4600 fluorescence spectrophotometer (Hitachi, Tokyo, Japan) with a 1 cm light path quartz cuvette. Slits of both excitation and emissions were 10 nm in width. The probe was excited at 337 nm, and emission spectra were recorded between 370 and 550 nm.
(§2) Affinities of SmosOBPs to tested volatile ligands were measured by competition assays: to the 1 mL solution containing 2 μM recombinant protein and 2 μM 1-NPN, 1 mM solution of each putative volatile ligand (in a 2 µL aliquot) was added to final concentrations of 2–14 μM for SmosOBP12 and 2–40 μM for SmosOBP17, respectively. Maximal fluorescence intensities were plotted against ligand concentrations. Data were obtained from three independent measurements.
(§3) The Kd value was calculated using GraphPad Prism 5 (GraphPad Software Inc., La Jolla, CA, USA) via nonlinear regression for a unique site of binding. The inhibition constant (Ki) of each ligand competitor was calculated from the corresponding IC50 value (the concentration of competitor displacing 50% of initial fluorescence intensity) according to the equation: Ki = [IC50]/(1 + [1-NPN]/K1-NPN), where [1-NPN] is the free concentration of 1-NPN, and K1-NPN is the dissociation constant of the SmosOBPs/1-NPN complex.

[4] = system: SmosOBP21; set-up: method as in PMID 31017726; conditions: cited from earlier work
[5] = target: SmosOBP12 (Sitodiplosis mosellana, UniProt A0A346RTY7); experiment: Fluorescence competitive binding assay with 1-NPN probe, recombinant SmosOBP12
Protocol: as §1, §2, §3

[6] = system: SmosOBP11; set-up: method as in PMID 31017726; conditions: cited from earlier work
[7] = fluorescence competitive binding

SmosOBP17, sequence (A0A346RTY9 entry or part of it): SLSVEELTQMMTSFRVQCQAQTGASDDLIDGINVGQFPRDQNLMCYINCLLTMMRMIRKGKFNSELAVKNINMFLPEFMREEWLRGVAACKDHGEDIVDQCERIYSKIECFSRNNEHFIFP
SmosOBP12, sequence (A0A346RTY7 entry or part of it): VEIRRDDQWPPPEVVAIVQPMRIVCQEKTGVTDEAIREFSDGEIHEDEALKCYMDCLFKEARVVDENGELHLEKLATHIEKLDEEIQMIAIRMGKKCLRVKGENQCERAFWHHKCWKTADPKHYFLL

- Ki ([3]; calculated from IC50, Ki = [IC50]/(1 + [1-NPN]/K1-NPN)): > 30 µM
- IC50 ([3]; displacement of 1-NPN, 2 μM protein, 2 μM 1-NPN, ligand 2–40 μM, three independent measurements, read-out: SmosOBP17 IC50): > 40 µM
- Ki ([5]; calculated from IC50, Ki = [IC50]/(1 + [1-NPN]/K1-NPN), read-out: SmosOBP12 Ki): > 11.3 µM
- IC50 ([5]; displacement of 1-NPN, 2 μM protein, 2 μM 1-NPN, ligand 2–14 μM, three independent measurements, read-out: SmosOBP12 IC50): > 14 µM
Compound: C=C/C(C)=C/C/C=C(\C)CCC=C(C)C [α-Farnesene]
- behavioral response of S. mosellana female adults [1]: intensive response; also recorded: significant repulsion; also recorded: repelled
- binding to SmosOBP16 (in words) [2]: no affinity
- binding to SmosOBP17 (in words) [3, 7]: did not show any affinity; also recorded: no affinity
- binding to SmosOBP21 (in words) [4]: no affinity
- binding to SmosOBP12 (in words) [5, 7]: did not show any affinity; also recorded: no affinity
- binding to SmosOBP11 (in words) [6]: no affinity

Reference: article PMC7767053, “Functional Analysis of Odorant-Binding Proteins 12 and 17 from Wheat Blossom Midge Sitodiplosis mosellana Géhin (Diptera: Cecidomyiidae)” (Insects, 2020)
